In patent publication US12516056B2, “Compounds for inhibition of janus kinase 1” (MANKIND PHARMA LTD., priority 2019, dated 2026):

Experiments:
Recombinant JAK1 = molecular target: T1, Recombinant JAK1 (Homo sapiens, UniProt P23458); experiment: JAK biochemical assay (LANCE Ultra TR-FRET), JAK1; conditions: recombinant JAK1, TR-FRET; read-out: Biochemical Assay (μM) JAK1
T1 construct: purchased Carna Biosciences
Experimental: (§1) Recombinant JAK1, JAK2, JAK3 and TYK2 (Carna Biosciences) were used to develop biochemical assays in 50 mM HEPES pH 7.5, 1 mM EGTA, 10 mM MgCl2, 2 mM DTT and 0.01% Tween-20. […] The intensity of the light emission is proportional to the level of ULight substrate phosphorylation. Compounds which interfere with JAK enzyme activity show a lesser substrate phosphorylation and values are projected in terms of % inhibition in comparison to vehicle control.

Recombinant JAK2 = molecular target: T2, Recombinant JAK2 (Homo sapiens, UniProt O60674); experiment: JAK biochemical assay (LANCE Ultra TR-FRET), JAK2; conditions: recombinant JAK2, TR-FRET; read-out: Biochemical Assay (μM) JAK2
T2 construct: purchased Carna Biosciences
T2 sequence (O60674 whole entry): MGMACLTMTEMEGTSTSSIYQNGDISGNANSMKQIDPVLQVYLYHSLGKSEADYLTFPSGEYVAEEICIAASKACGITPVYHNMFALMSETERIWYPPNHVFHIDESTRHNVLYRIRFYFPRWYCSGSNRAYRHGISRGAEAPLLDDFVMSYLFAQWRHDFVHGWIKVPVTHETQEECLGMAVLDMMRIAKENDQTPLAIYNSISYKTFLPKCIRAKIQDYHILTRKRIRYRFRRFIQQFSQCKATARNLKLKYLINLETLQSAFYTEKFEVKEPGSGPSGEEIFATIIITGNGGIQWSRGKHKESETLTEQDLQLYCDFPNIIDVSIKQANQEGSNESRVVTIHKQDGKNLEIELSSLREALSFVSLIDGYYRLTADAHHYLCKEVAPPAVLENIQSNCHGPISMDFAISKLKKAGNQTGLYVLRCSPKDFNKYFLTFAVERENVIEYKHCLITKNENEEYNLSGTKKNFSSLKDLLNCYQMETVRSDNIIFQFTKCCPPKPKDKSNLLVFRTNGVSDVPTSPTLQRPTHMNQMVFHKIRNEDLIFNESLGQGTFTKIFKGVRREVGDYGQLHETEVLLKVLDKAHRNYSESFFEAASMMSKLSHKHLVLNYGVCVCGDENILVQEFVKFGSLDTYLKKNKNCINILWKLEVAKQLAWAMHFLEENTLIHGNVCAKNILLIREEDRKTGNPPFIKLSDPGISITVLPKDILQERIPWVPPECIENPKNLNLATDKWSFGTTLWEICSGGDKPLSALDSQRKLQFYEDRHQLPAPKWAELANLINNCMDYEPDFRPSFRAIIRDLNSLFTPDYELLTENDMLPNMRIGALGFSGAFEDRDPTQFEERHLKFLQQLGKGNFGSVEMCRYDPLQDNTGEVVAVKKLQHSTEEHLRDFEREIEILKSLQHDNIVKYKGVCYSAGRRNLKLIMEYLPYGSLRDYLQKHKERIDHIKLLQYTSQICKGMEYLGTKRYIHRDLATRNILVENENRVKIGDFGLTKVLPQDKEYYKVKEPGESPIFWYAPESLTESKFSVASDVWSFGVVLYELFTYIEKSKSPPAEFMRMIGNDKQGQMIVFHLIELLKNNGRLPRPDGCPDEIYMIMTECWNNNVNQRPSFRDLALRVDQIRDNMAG
Experimental: as §1

Recombinant JAK3 = molecular target: T3, Recombinant JAK3 (Homo sapiens, UniProt P52333); experiment: JAK biochemical assay (LANCE Ultra TR-FRET), JAK3; conditions: recombinant JAK3, TR-FRET; read-out: Biochemical Assay (μM) JAK3
T3 construct: purchased Carna Biosciences
T3 sequence (P52333 1-1124): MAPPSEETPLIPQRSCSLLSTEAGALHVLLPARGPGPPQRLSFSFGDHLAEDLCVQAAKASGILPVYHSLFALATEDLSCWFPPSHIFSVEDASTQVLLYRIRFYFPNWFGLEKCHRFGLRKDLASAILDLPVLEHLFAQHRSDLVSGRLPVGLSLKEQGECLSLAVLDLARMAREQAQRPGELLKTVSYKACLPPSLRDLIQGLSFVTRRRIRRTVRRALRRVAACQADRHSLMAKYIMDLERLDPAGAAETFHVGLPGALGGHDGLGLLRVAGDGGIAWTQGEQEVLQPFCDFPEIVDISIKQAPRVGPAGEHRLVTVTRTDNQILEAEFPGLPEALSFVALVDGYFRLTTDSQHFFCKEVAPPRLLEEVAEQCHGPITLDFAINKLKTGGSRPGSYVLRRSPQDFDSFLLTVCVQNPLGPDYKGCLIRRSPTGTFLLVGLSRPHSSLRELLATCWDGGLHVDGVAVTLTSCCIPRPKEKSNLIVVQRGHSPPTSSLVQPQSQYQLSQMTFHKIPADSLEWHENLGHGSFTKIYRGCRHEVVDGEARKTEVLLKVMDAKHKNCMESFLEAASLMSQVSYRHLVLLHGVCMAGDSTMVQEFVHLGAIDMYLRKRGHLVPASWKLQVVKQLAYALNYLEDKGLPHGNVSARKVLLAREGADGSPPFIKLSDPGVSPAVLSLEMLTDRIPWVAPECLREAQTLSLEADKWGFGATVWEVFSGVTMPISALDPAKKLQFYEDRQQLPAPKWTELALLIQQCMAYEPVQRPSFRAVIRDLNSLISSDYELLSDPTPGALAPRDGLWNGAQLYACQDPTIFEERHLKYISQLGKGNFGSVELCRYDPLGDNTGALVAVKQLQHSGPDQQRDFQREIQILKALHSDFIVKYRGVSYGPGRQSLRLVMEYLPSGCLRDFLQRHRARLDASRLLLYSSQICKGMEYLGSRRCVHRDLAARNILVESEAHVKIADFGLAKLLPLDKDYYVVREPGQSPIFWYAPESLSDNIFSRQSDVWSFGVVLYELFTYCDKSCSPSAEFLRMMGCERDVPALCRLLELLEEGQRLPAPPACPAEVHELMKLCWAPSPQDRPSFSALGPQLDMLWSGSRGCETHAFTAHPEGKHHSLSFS
Experimental: as §1

Recombinant TYK2 = molecular target: T4, Recombinant TYK2 (Homo sapiens, UniProt P29597); experiment: JAK biochemical assay (LANCE Ultra TR-FRET), TYK2; conditions: recombinant TYK2, TR-FRET; read-out: Biochemical Assay (μM) TYK2
T4 construct: purchased Carna Biosciences
T4 sequence (P29597 whole entry): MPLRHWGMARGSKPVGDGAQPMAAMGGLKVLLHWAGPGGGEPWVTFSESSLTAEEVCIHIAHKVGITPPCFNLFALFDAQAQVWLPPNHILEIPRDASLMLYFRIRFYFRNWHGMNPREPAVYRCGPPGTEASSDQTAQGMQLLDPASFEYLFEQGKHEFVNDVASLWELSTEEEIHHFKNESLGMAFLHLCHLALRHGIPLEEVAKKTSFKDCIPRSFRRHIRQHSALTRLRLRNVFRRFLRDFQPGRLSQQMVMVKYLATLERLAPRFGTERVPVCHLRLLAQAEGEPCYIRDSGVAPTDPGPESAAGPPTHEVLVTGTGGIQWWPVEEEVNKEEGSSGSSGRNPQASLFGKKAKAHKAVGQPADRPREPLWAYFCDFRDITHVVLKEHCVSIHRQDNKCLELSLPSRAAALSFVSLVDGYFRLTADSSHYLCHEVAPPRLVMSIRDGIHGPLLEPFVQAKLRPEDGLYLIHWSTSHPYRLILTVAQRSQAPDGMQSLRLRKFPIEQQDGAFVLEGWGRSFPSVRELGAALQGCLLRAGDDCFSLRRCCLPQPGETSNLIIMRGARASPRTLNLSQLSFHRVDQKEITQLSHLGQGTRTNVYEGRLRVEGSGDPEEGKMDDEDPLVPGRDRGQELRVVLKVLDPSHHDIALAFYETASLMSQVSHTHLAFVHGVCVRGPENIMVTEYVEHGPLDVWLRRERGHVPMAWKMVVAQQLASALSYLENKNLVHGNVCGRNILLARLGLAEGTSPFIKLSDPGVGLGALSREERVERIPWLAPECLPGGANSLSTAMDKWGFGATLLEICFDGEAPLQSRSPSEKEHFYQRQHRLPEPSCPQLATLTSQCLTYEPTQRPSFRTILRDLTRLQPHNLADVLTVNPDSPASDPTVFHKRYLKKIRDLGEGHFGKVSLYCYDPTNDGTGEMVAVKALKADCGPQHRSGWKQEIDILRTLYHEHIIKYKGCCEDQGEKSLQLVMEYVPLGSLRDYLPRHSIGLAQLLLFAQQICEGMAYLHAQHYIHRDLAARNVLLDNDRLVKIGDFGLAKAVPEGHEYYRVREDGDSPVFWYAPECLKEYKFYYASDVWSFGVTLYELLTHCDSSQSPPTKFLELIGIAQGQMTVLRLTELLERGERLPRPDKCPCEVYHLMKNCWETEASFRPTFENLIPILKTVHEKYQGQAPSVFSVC
Experimental: as §1

T1 sequence (P23458 whole entry): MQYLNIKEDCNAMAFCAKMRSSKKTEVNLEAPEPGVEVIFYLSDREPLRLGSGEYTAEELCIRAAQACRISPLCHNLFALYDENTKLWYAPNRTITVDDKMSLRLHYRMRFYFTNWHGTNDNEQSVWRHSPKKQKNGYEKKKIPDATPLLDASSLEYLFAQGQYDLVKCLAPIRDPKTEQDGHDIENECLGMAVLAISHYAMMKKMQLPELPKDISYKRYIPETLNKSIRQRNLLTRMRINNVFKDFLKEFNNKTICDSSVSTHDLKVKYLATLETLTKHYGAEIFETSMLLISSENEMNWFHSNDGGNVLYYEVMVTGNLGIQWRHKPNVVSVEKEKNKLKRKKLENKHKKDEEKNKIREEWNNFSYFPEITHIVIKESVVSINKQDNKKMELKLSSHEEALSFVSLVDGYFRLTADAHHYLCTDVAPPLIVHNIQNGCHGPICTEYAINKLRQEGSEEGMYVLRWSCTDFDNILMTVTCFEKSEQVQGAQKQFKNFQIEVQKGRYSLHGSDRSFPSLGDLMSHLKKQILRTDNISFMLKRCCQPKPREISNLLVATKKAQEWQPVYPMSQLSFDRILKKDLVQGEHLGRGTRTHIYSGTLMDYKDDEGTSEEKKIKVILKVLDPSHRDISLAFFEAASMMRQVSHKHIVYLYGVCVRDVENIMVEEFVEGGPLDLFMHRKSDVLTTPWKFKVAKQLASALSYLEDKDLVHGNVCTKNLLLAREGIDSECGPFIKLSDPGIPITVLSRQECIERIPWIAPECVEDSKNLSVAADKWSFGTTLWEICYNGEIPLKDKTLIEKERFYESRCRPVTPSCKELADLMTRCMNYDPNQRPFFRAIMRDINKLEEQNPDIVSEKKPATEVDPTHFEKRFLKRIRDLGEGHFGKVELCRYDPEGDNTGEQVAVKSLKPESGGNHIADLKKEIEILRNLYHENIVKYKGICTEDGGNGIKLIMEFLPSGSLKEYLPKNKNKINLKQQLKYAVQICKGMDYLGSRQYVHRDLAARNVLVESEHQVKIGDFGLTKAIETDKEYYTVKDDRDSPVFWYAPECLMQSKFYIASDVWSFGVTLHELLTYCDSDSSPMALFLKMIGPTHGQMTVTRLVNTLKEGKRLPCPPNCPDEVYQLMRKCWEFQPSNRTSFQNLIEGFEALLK

Structure (SMILES)	IC50 (Recombinant JAK1)	IC50 (Recombinant JAK2)	IC50 (Recombinant JAK3)	IC50 (Recombinant TYK2)
N#CCC(NC(=O)n1cc(-c2ccnc3[nH]cnc23)cn1)C1CCOCC1 (stereo not shown) [Example 1065, N-(2-cyano-1-(tetrahydro-2H-pyran-4-yl)ethyl)-4-(3H-imidazo[4,5-b]pyridin-7-yl)-1H-pyrazole-1-carboxamide]	> 0.5 µM	< 0.5 µM	> 0.5 µM	> 0.5 µM
CS(=O)(=O)CCC(c1ccnc(-n2cc(-c3ccnc4[nH]cnc34)cn2)c1)C(F)(F)F (stereo not shown) [Example 1176, 7-(1-(4-(1,1,1-trifluoro-4-(methylsulfonyl)butan-2-yl)pyridin-2-yl)-1H-pyrazol-4-yl)-3H-imidazo[4,5-b]pyridine]	> 1 µM	> 1 µM	> 1 µM	> 1 µM
COC(CCS(C)(=O)=O)c1ccc(-n2cc(-c3ccnc4[nH]cnc34)cn2)nc1 (stereo not shown) [Example 1161, 7-(1-(5-(1-methoxy-3-(methylsulfonyl)propyl)pyridin-2-yl)-1H-pyrazol-4-yl)-3H-imidazo[4,5-b]pyridine]	> 1 µM	> 1 µM	> 0.5 µM	> 1 µM
N#CC1CN(C(=O)CNC(=O)n2cc(-c3ccnc4[nH]c(=O)[nH]c34)cn2)C1 [Example 1059, N-(2-(3-cyanoazetidin-1-yl)-2-oxoethyl)-4-(2-oxo-2,3-dihydro-1H-imidazo[4,5-b]pyridin-7-yl)-1H-pyrazole-1-carboxamide]	> 1 µM	> 1 µM	> 10 µM	> 10 µM
N#CC1CN(C(=O)c2ccc(-n3cc(-c4ccnc5[nH]cnc45)cn3)nc2)C1 [Example 1089, 1-(6-(4-(3H-imidazo[4,5-b]pyridin-7-yl)-1H-pyrazol-1-yl)nicotinoyl)azetidine-3-carbonitrile]	> 0.5 µM	> 0.5 µM	> 1 µM	> 1 µM
O=C1Cc2c(-c3cnn(C(=O)NCC(F)(F)F)c3)ccnc2N1 [Example 1045, N-(2,2,2-trifluoroethyl)-4-(2,3-dihydro-2-oxo-1H-pyrrolo[2,3-b]pyridin-4-yl)-1H-pyrazole-1-carboxamide]	> 1 µM	> 1 µM	> 1 µM	> 1 µM
CS(=O)(=O)CCC(c1ccc(-n2cc(-c3ccnc4[nH]c(=O)[nH]c34)cn2)nc1)C(F)(F)F (stereo not shown) [Example 1147, 7-(1-(5-(1,1,1-trifluoro-4-(methylsulfonyl)butan-2-yl)pyridin-2-yl)-1H-pyrazol-4-yl)-1H-imidazo[4,5-b]pyridin-2(3H)-one]	> 0.5 µM	> 1 µM	> 1 µM	> 1 µM
N#CCC(NC(=O)n1cc(-c2ccnc3[nH]c(=O)[nH]c23)cn1)C1CCOCC1 (stereo not shown) [Example 1062, N-(2-cyano-1-(tetrahydro-2H-pyran-4-yl)ethyl)-4-(2,3-dihydro-2-oxo-1H-imidazo[4,5-b]pyridin-7-yl)-1H-pyrazole-1-carboxamide]	< 0.5 µM	< 0.5 µM	< 0.5 µM	< 0.5 µM
COc1cc(-n2cc(-c3ccnc4[nH]cnc34)cn2)ccc1CC#N [Example 1105, 2-(4-(4-(3H-imidazo[4,5-b]pyridin-7-yl)-1H-pyrazol-1-yl)-2-methoxyphenyl)acetonitrile]	> 1 µM	> 0.5 µM	> 0.5 µM	> 10 µM
O=C(NC1CCS(=O)(=O)CC1)N1CCN(c2ccnc3[nH]c(=O)[nH]c23)CC1 [Example 1020, N-(1,1-dioxidotetrahydro-2H-thiopyran-4-yl)-4-(2-oxo-2,3-dihydro-1H-imidazo[4,5-b]pyridin-7-yl)piperazine-1-carboxamide]	> 10 µM	> 10 µM	> 10 µM	> 10 µM
N#CCc1ccc(-n2cc(-c3ccnc4[nH]cnc34)cn2)cc1F [Example 1104, 2-(4-(4-(3H-imidazo[4,5-b]pyridin-7-yl)-1H-pyrazol-1-yl)-2-fluorophenyl)acetonitrile]	> 1 µM	< 0.5 µM	< 0.5 µM	> 1 µM
O=C(NCC1CCCC1)n1cc(-c2ccnc3[nH]c(=O)[nH]c23)cn1 [Example 1034, N-(cyclopentylmethyl)-4-(2,3-dihydro-2-oxo-1H-imidazo[4,5-b]pyridin-7-yl)-1H-pyrazole-1-carboxamide]	> 1 µM	> 1 µM	> 10 µM	> 10 µM
CC(NC(=O)N1CCN(c2ccnc3[nH]c(=O)[nH]c23)CC1)C(F)(F)F (stereo not shown) [Example 1021, N-(1,1,1-trifluoropropan-2-yl)-4-(2,3-dihydro-2-oxo-1H-imidazo[4,5-b]pyridin-7-yl)piperazine-1-carboxamide]	–	> 1 µM	> 1 µM	> 1 µM
O=C(NCC(F)(F)F)Nc1cnc(-c2ccnc3[nH]c(=O)[nH]c23)cn1 [Example 1006, 1-(5-(2-oxo-2,3-dihydro-1H-imidazo[4,5-b]pyridin-7-yl)pyrazin-2-yl)-3-(2,2,2-trifluoroethyl)urea]	–	–	–	> 1 µM
CN(C)C(c1ccc(-n2cc(-c3ccnc4[nH]cnc34)cn2)nc1)C(F)(F)F (stereo not shown) [Example 1121, 1-(6-(4-(3H-imidazo[4,5-b]pyridin-7-yl)-1H-pyrazol-1-yl)pyridin-3-yl)-2,2,2-trifluoro-N,N-dimethylethanamine]	–	> 0.1 µM	> 0.1 µM	> 1 µM
COc1cc(NC(=O)N2CCN(c3ccnc4[nH]c(=O)[nH]c34)CC2)ccn1 [Example 1019, 4-(2,3-dihydro-2-oxo-1H-imidazo[4,5-b]pyridin-7-yl)-N-(2-methoxypyridin-4-yl)piperazine-1-carboxamide]	–	> 1 µM	> 1 µM	> 1 µM
OC(c1ccnc(-n2cc(-c3ccnc4[nH]cnc34)cn2)c1)C(F)(F)F (stereo not shown) [Example 1172, 1-(2-(4-(3H-imidazo[4,5-b]pyridin-7-yl)-1H-pyrazol-1-yl)pyridin-4-yl)-2,2,2-trifluoroethanol]	–	–	< 0.1 µM	> 1 µM
OC(c1ccc(-n2cc(-c3ccnc4[nH]cnc34)cn2)nc1)(C1CCCC1)C(F)(F)F (stereo not shown) [Example 1132, 1-(6-(4-(3H-imidazo[4,5-b]pyridin-7-yl)-1H-pyrazol-1-yl)pyridin-3-yl)-1-cyclopentyl-2,2,2-trifluoroethanol]	–	> 0.5 µM	> 0.1 µM	> 1 µM
O=C(Nc1ccnc(F)c1)N1CCN(c2ccnc3[nH]c(=O)[nH]c23)CC1 [Example 1015, N-(2-fluoropyridin-4-yl)-4-(2,3-dihydro-2-oxo-1H-imidazo[4,5-b]pyridin-7-yl)piperazine-1-carboxamide]	–	> 1 µM	> 1 µM	> 1 µM
CCC(C)(C#N)NC(=O)n1cc(-c2ccnc3[nH]c(=O)[nH]c23)cn1 (stereo not shown) [Example 1040, N-(2-cyanobutan-2-yl)-4-(2,3-dihydro-2-oxo-1H-imidazo[4,5-b]pyridin-7-yl)-1H-pyrazole-1-carboxamide]	–	–	–	> 1 µM
CC(C)(C#N)NC(=O)n1cc(-c2ccnc3[nH]c(=O)[nH]c23)cn1 [Example 1033, N-(2-cyanopropan-2-yl)-4-(2,3-dihydro-2-oxo-1H-imidazo[4,5-b]pyridin-7-yl)-1H-pyrazole-1-carboxamide]	–	–	> 1 µM	> 1 µM
FC(F)(F)C(c1ccc(-n2cc(-c3ccnc4[nH]cnc34)cn2)nc1)N1CCOCC1 (stereo not shown) [Example 1137, 7-(1-(5-(2,2,2-trifluoro-1-morpholinoethyl)pyridin-2-yl)-1H-pyrazol-4-yl)-3H-imidazo[4,5-b]pyridine]	–	> 0.5 µM	> 0.5 µM	> 1 µM
N#CCNC(=O)N1CCN(c2ccnc3[nH]c(=O)[nH]c23)CC1 [Example 1012, N-(cyanomethyl)-4-(2,3-dihydro-2-oxo-1H-imidazo[4,5-b]pyridin-7-yl)piperazine-1-carboxamide]	–	–	> 1 µM	–
